Source: patent publication US7544814B2, “[3.2.0] Heterocyclic compounds and methods of using the same” (Nereus Pharmaceuticals, Inc., priority 2004, dated 2009)
Values joined by “and” are separate entries in the source; they are usually repeats but may differ in a detail not shown here. Equal values may be shown once. Read-outs that look alike come from different tables or passages of the source.

Tests used:
[1] = test system: NF-κB; assay: NF-κB-mediated luciferase reporter gene assay, HEK293 NF-κB/Luc cells, TNF-α stimulation; format: cell-based, human; settings: for EC50: 1 hr pretreatment, TNF-α 6 hr; for effect on luciferase activity upon TNF-α stimulation, in words: pretreatment of NF-κB/Luc 293 cells
Procedure: The HEK293 NF-κB/luciferase reporter cell line is a derivative of the human embryonic kidney cell line (ATCC; CRL-1573) and carries a luciferase reporter gene under the regulation of 5× NF-κB binding sites. […] When performing the luciferase assay, the DMEM basal medium was replaced with phenol-red free DMEM basal medium and the G418 was omitted.
For NF-κB-mediated luciferase assays, HEK293 NF-κB/luciferase cells were seeded at 1.5×10^4 cells/well in 90 μl phenol-red free DMEM complete medium into Corning 3917 white opaque-bottom tissue culture plates. For Formula II-2, Formula II-4, Formula II-5A, and Formula II-18, a 400 μM starting dilution was made in 100% DMSO and this dilution was used to generate a 8-point half log dilution series. […] For Formula II-20, a 2.5 mM or 8 mM starting solution was made in 100% DMSO and the final test concentrations ranged from 6.3 μM to 2.0 nM or 20 μM to 6.3 nM, respectively. The plates were returned to the incubator for 1 hour. After 1 hr pretreatment, 10 μl of a 50 ng/ml TNF-α solution, prepared in the phenol-red free DMEM medium was added, and the plates were incubated for an additional 6 hr.
At the end of the TNF-α stimulation, 100 μl of Steady Lite HTS luciferase reagent (Packard Bioscience) was added to each well and the plates were left undisturbed for 10 min at room temperature before measuring the luciferase activity. The relative luciferase units (RLU) were measured by using a Fusion microplate fluorometer (Packard Bioscience).

[2] = target: T1, chymotrypsin-like activity of purified rabbit muscle 20S proteasome (Oryctolagus cuniculus, UniProt G1T4Q9); assay: In vitro inhibition of 20S proteasome chymotrypsin-like activity (suc-LLVY-AMC)
T1 sequence (G1T4Q9 1-263): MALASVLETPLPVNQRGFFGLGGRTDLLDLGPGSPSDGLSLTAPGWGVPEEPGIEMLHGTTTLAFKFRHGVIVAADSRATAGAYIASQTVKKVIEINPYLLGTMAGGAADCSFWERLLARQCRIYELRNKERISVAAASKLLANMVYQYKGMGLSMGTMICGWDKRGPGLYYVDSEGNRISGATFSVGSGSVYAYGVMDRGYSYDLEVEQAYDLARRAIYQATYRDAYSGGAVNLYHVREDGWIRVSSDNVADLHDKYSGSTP

[3] = target: T2, caspase-like activity of purified rabbit muscle 20S proteasome (Oryctolagus cuniculus, UniProt A0A5F9DQW2); assay: In vitro inhibition of 20S proteasome caspase-like activity (Z-LLE-AMC)
T2 sequence (A0A5F9DQW2 1-212): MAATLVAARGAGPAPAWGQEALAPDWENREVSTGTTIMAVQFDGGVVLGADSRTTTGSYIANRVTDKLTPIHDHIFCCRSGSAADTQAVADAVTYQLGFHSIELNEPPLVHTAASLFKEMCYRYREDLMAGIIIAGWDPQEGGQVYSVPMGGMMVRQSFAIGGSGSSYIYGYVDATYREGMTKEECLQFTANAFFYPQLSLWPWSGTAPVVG

[4] = target: T3, trypsin-like activity of purified rabbit muscle 20S proteasome (Oryctolagus cuniculus, UniProt G1SWK8); assay: biochemical
T3 sequence (G1SWK8 1-271): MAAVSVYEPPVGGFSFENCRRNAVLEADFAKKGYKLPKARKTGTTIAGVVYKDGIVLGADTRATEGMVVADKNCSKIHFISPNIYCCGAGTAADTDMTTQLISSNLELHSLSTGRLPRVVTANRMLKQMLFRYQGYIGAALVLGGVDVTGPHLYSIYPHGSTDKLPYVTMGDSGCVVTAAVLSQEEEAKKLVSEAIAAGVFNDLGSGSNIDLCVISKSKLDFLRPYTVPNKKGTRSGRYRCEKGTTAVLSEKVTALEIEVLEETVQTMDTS

[5] = test system: RPMI 8226; assay: Cell growth inhibition (resazurin), RPMI 8226; settings: for EC50: 48 hours drug exposure, mean ± SD where n≥3; for cytotoxicity against RPMI 8226, in words: from EC50 values
[6] = test system: U266; assay: Cell growth inhibition (resazurin), U266; settings: for cytotoxicity against U266, in words: from EC50 values; for EC50: 48 hours drug exposure
[7] = target: T3, trypsin-like activity of purified rabbit muscle 20S proteasome; assay: In vitro inhibition of 20S proteasome trypsin-like activity (Boc-LRR-AMC); settings: under the conditions tested
[8] = Homo sapiens, HEK293, read-out: EC50, NF-κB-mediated luciferase reporter gene assay, Table 5, values in μM
[9] = EC50 Chymotrypsin-like, Table 6, values in nM
[10] = EC50 values, chymotrypsin-like activity, summary of Table 6
[11] = Homo sapiens, RPMI-8226, 48 h, read-out: RPMI 8226 EC50, Table 2
[12] = read-out: RPMI 8226 EC50, Table 2
[13] = Homo sapiens, HEK293, Table 5, values printed in μM, read-out: EC50, NF-κB-mediated luciferase reporter gene assay
[14] = EC50 Chymotrypsin-like, Table 6, values in μM
[15] = EC50 values, chymotrypsin-like activity, range or bound stated in text, summary of Table 6
[16] = EC50 Caspase-like, Table 6, values in μM
[17] = Homo sapiens, U-266, 48 h, read-out: U266 EC50, Table 2
[18] = EC50 values, caspase-like activity, range in mixed units, summary of Table 6, range from nM to μM

SMILES | EC50 [2, 9] | EC50 [2, 10] [nM] | EC50 [4] | EC50 [5, 11] [nM] | cytotoxicity against RPMI 8226, in words [5] | EC50 [5, 12] [nM] | inhibition of the trypsin-like activity of the 20S proteasome, in words [7] | EC50 [3, 16] | further results
C[C@@]12OC(=O)[C@]1([C@@H](O)[C@@H]1C=CCCC1)NC(=O)[C@@H]2CCN=[N+]=[N-] [Formula II-29] | 6 nM and 8 nM | 2 to 11 | 175 nM and 254 nM | 4280 | cytotoxic | 6940 | able to inhibit |  | EC50 [1, 8]: 1.2 µM; effect on luciferase activity upon TNF-α stimulation, in words [1]: dose-dependent decrease; EC50 ([1]; read-out: EC50, NF-κB-mediated luciferase reporter gene assay, Table 5, values in μM): 1.4 µM; EC50 ([3]; EC50 Caspase-like, Table 6, values in nM): 535 nM and 520 nM; EC50 ([3]; EC50 values, caspase-like activity, summary of Table 6): 213 to 850 nM; cytotoxicity against U266, in words [6]: cytotoxic
C[C@@]12OC(=O)[C@]1([C@@H](O)[C@@H]1C=CCCC1)NC(=O)[C@H]2CCCl [Formula II-26] |  |  |  | 2230 | cytotoxic | 1610 | able to inhibit |  | EC50 [1, 13]: 4.3 µM; EC50 ([1]; Table 5, values in μM, read-out: EC50, NF-κB-mediated luciferase reporter gene assay): 4.1 µM; effect on luciferase activity upon TNF-α stimulation, in words [1]: dose-dependent decrease; cytotoxicity against U266, in words [6]: cytotoxic; EC50 ([6]; read-out: U266 EC50, Table 2): 829 nM
CC[C@@]12OC(=O)[C@]1([C@@H](O)[C@@H]1C=CCCC1)NC(=O)[C@@H]2CCCl [Formula II-24C] |  |  | 3300 nM and 3100 nM | 2320 | cytotoxic | 1640 | able to inhibit | > 20000 nM | EC50 [1, 8]: 5.3 µM; effect on luciferase activity upon TNF-α stimulation, in words [1]: dose-dependent decrease; EC50 [2, 14]: 2000 nM; EC50 [2, 15]: 1400 to 10600 nM; EC50 [6, 17]: 1150 nM; cytotoxicity against U266, in words [6]: cytotoxic; EC50 ([6]; read-out: U266 EC50, Table 2): 825 nM
COC(=O)C(CSC(=O)[C@]1([C@@H](O)[C@@H]2C=CCCC2)NC(=O)[C@H](CCCl)[C@]1(C)O)NC(C)=O (stereo partly shown) [Formula II-50] |  |  |  | 10 | cytotoxic |  |  |  | 
C[C@@]12OC(=O)[C@]1([C@@H](O)[C@@H]1C=CCCC1)NC(=O)[C@@H]2CCN=C=S [Formula II-38] | 3.4 ± 0.2 nM | 2 to 11 |  | 2600 | cytotoxic | 1800 |  |  | 
C[C@@]12OC(=O)[C@]1(C(O)[C@@H]1C=CCCC1)NC(=O)[C@@H]2CCCl (single isomer, unassigned) [Formula II-25] |  |  |  | > 20000 |  |  |  |  | EC50 [1, 13]: > 20 µM; EC50 [6, 17]: > 20000 nM
C[C@@H]1C(=O)N[C@@]2([C@@H](O)[C@@H]3C=CCCC3)C(=O)O[C@@]12C [Formula II-28] |  |  | > 20000 nM | > 20000 |  |  |  | > 20000 nM | EC50 [1, 8]: > 20 µM; EC50 [2, 14]: 3200 nM and 3300 nM; EC50 [2, 15]: 1400 to 10600 nM; EC50 [6, 17]: > 20000 nM
COC(=O)CCSC(=O)[C@]1([C@@H](O)[C@@H]2C=CCCC2)NC(=O)[C@H](CCCl)[C@]1(C)O [Formula II-44] | 11 nM and 8.7 nM | 2 to 11 | 55 nM and 54 nM | 12 | cytotoxic | 8.8 | able to inhibit | 1400 nM | EC50 ([1]; Homo sapiens, HEK293, read-out: EC50, NF-κB-mediated luciferase reporter gene assay, Table 5, values in nM): 0.017 ± 0.004 µM; effect on luciferase activity upon TNF-α stimulation, in words [1]: dose-dependent decrease; EC50 [3, 18]: 956 to 8700 nM
C[C@@]12OC(=O)[C@]1(C(=O)C1=CC(O)CCC1)NC(=O)[C@]2(C)CCCl (stereo partly shown) [Formula II-32] |  |  |  |  |  | > 20000 |  |  | 
COC(=O)CCSC(=O)C1(C(O)C2C=CCCC2)NC(=O)C2CCOC21C (stereo not shown) [Formula VI-1A] | 274 nM and 207 nM | 207 to 964 | 3100 nM and 3000 nM | 8400 | cytotoxic | 7800 | able to inhibit | 7900 nM and 8700 nM | EC50 [1, 8]: > 20 µM; EC50 [3, 18]: 956 to 8700 nM
CC[C@H]1C(=O)N[C@](C(=O)SCCC(=O)OC)([C@@H](O)[C@@H]2C=CCCC2)[C@@]1(C)O [Formula II-47] | 50 ± 10 nM | 13 to 88 |  | 8000 ± 3400 | cytotoxic |  |  |  | 
CC[C@@H]1C(=O)N[C@@]2([C@@H](O)[C@@H]3C=CCCC3)C(=O)O[C@@]12C [Formula II-27] |  |  | > 20000 nM |  |  |  |  |  | EC50 [1, 13]: > 20 µM
C[C@@]12OC(=O)[C@]1(C(=O)C1=CC(O)CCC1)NC(=O)[C@]2(C)CCCl (stereo partly shown) [Formula II-31] |  |  |  | > 20000 |  |  |  |  | 
CC12OC(=O)C1(CC1C=CCCC1)NC(=O)C2CCCl (stereo not shown) [Formula I-7] | 52 ± 2 nM | 13 to 88 |  | 240 | cytotoxic | 250 |  |  | 
CC12OC(=O)C1(C(=O)C1C=CCCC1)NC(=O)C2CCCl (stereo not shown) [Formula II-13C] |  |  | 8600 nM and 12800 nM |  |  |  | able to inhibit | > 20000 nM | EC50 [2, 14]: 7600 nM and 8800 nM; EC50 [2, 15]: 1400 to 10600 nM
